According to patent publication US6391868B1, “Use of 5-alpha-androst-1-en-3,17-dione to increase the level of the anabolic/androgenic hormone 17-beta-hydroxy-5-alpha-androst-1-en-3-one in humans” (LPT Research, Inc., priority 2000, dated 2002):

How the values were obtained:
[1] = 100 mg orally to men; cited from earlier work
[2] = Oral treatment of a person with andropause-type symptoms; format: in vivo, human; details: oral 3×100 mg daily, 4 weeks, one person
Method: A person with complaints of decreased libido, lethargy, depression, and muscular weakness, was treated for 4 weeks with oral androstenedione 3×100 mg daily. […] After a 2 week respite, they then commenced a 4 week regimen of 5alpha-ANDROST-1-EN-3,17-DIONE using the same protocol (3×100 mg daily).

[3] = Steroids (8) 216; cited from earlier work

Row | Compound | excretion of 17beta-hydroxy-5alpha-androst-1-en-3-one in the urine [1] | reported improvement of symptoms (decreased libido, lethargy, depression, muscular weakness) [2] | anabolic properties relative to testosterone [3]
1 | C[C@]12C=CC(=O)C[C@@H]1CC[C@@H]1[C@@H]2CC[C@]2(C)C(=O)CC[C@@H]12 [5alpha-ANDROST-1-EN-3,17-DIONE, 5alpha-androst-1-en-3,17-dione] | considerable excretion | clearly evident significant improvements in all their symptoms | 
2 | C[C@]12CCC(=O)C=C1CC[C@@H]1[C@@H]2CC[C@]2(C)C(=O)CC[C@@H]12 [androstenedione, 4-androstenedione] |  | did not report any noticeable improvement | 
3 | C[C@]12C=CC(=O)C[C@@H]1CC[C@@H]1[C@@H]2CC[C@]2(C)[C@@H](O)CC[C@@H]12 [17beta-hydroxy-5alpha-androst-1-en-3-one] |  |  | considerably more potent
